In patent US20150182434A1, “COSMETIC USE OF NAPTHOIC ACID DERIVATIVES” (Avon Products, Inc., priority 2013, published 2015):

Target: T1, recombinant human (rh) KLK5 (Homo sapiens, UniProt Q9Y337)
T1 construct: purchased R&D Systems 1108-SE
T1 sequence (Q9Y337 23-293): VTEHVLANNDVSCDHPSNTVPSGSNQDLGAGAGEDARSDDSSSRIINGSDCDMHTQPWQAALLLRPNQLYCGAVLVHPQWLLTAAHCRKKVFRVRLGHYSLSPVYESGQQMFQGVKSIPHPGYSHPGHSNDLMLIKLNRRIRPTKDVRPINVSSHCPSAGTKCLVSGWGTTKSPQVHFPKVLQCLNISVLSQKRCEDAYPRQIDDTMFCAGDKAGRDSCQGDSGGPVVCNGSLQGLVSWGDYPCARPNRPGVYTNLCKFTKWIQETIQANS
Experiment: Enzymatic activity of KLK5 (fluorogenic peptide substrate Boc-V-P-R-AMC)
Format: biochemical
Conditions: FIG. 1; for KLK5 activity compared to that of salicylic acid: rhKLK5, rate of enzyme activity relative to salicylic acid
Excerpt: In the stratum corneum, skin's outermost layer, cell-to-cell cohesion depends primarily on proteins known as the corneodesmosomes. During skin remodeling and renewal dead cells are shed from the skin surface by the action of native proteases that break down the corneodesmosomes. […] Hypothetically, up-regulation of the activities of these proteases using different active candidates could be utilized to increase the rate of shedding of dead skin, thus providing a natural means for skin exfoliation. To this end, the enzymatic activity of a member of the KLK family, recombinant human (rh) KLK5, was monitored following pre-incubation with actives and measuring the rate of peptide bond cleavage of a synthetic substrate.
Enzymatic activity of KLK5 was measured by incubating recombinant human (rh) KLK5 protease (R&D Systems, Cat No. 1108-SE) with a specific fluorogenic peptide substrate Boc-V-P-R-AMC (R& D Systems, Cat No. ES011). The substrate is conjugated to a quenched fluorescent group. Upon cleavage of the adjacent peptide bond, the fluorescent signal is released, resulting in a measureable emission at […] when excited at 340 nm wavelength. Increase in fluorescence reading indicates an increase in rhKLK5 activity. The test compounds were reacted with recombinant rhKLK5 protease for 60 seconds followed by addition of Boc-V-P-R-AMC Fluorogenic Peptide Substrate. After 60 seconds of incubation, fluorescence was measured at 340 nm (Excitation wavelength) and 485 nm (Emission wavelength) every 1 minute for 7 minutes. Rate (kinetics) of enzyme activity was calculated as follows: Rate of enzyme activity=Change of fluorescent reading (after background correction)/Change of reaction time (min). Percent change of activity due to a test compound was calculated by comparing rate of enzyme activity in the presence of the test compound to that of a control without the test compound and statistical significance was calculated using a t-test. Additionally, the rate of activity of the compounds was compared to that of salicylic acid.

SMILES | KLK5 activity compared to that of salicylic acid | percentage of KLK5 activity relative to salicylic acid (salicylic acid as the benchmark) [%]
O=C(O)c1ccc2ccccc2c1O [1-hydroxy-2-napthoic acid] | substantially less KLK5 activity than salicylic acid | –
O=C(O)c1c(O)ccc2ccccc12 [2-hydroxy-1-napthoic acid] | substantially less KLK5 activity than salicylic acid | –
O=C(O)c1cc2ccccc2cc1O [3-hydroxy-2-napthoic acid] | potent stimulator of KLK5, as it is increased beyond salicylic acid | –
O=C(O)c1ccccc1O [salicylic acid] | – | 100
